From PubChem BioAssay AID1963959 (Molecular Pharmacology Branch, DTP, NCI, 2024)

Test system: T-47D spheroids with HUVEC/MSC, viability
Test: Anticancer human tumor T-47D cell line growth inhibition [PI3K];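 also: spheroids exposed to agents for seven days before reading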;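 as to viability, T/C: percent of DMSO vehicle control luminescence so 100% = untreated growth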
Conditions: for IC50: curve of first compound; for viability, T/C: stronger effect = lower value; active = viability on the fitted dose curve at most 10% of control; inactive = the rest
How it was run: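 Viability of mixed-cell spheroids was determined after exposure to pairwise combinations, one partner being inavolisib, alpelisib, duvelisib or copanlisib. Highest tested concentration matched clinical Cmax where known and 10 microM where not, descending in half-log steps.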

[1] = second compound 0.00316 µM, first compound 0.0316 µM
[2] = second compound 0.00316 µM, first compound 0.1 µM
[3] = second compound 0.00316 µM, first compound 0.316 µM
[4] = second compound 0.00316 µM, first compound 1 µM
[5] = second compound 0.00316 µM, first compound 3.16 µM
[6] = second compound 0.00316 µM, first compound 10 µM
[7] = second compound 0.01 µM, first compound 0.0316 µM
[8] = second compound 0.01 µM, first compound 0.1 µM
[9] = second compound 0.01 µM, first compound 0.316 µM
[10] = second compound 0.01 µM, first compound 1 µM
[11] = second compound 0.01 µM, first compound 3.16 µM
[12] = second compound 0.01 µM, first compound 10 µM
[13] = second compound 0.0316 µM, first compound 0.0316 µM
[14] = second compound 0.0316 µM, first compound 0.1 µM
[15] = second compound 0.0316 µM, first compound 0.316 µM
[16] = second compound 0.0316 µM, first compound 1 µM
[17] = second compound 0.0316 µM, first compound 3.16 µM
[18] = second compound 0.0316 µM, first compound 10 µM
[19] = second compound 0.1 µM, first compound 0.0316 µM
[20] = second compound 0.1 µM, first compound 0.1 µM
[21] = second compound 0.1 µM, first compound 0.316 µM
[22] = second compound 0.1 µM, first compound 1 µM
[23] = second compound 0.1 µM, first compound 3.16 µM
[24] = second compound 0.1 µM, first compound 10 µM
[25] = second compound 0.316 µM, first compound 0.0316 µM
[26] = second compound 0.316 µM, first compound 0.1 µM
[27] = second compound 0.316 µM, first compound 0.316 µM
[28] = second compound 0.316 µM, first compound 1 µM
[29] = second compound 0.316 µM, first compound 3.16 µM
[30] = second compound 0.316 µM, first compound 10 µM
[31] = second compound 1 µM, first compound 0.0316 µM
[32] = second compound 1 µM, first compound 0.1 µM
[33] = second compound 1 µM, first compound 0.316 µM
[34] = second compound 1 µM, first compound 1 µM
[35] = second compound 1 µM, first compound 3.16 µM
[36] = second compound 1 µM, first compound 10 µM

C#Cc1c(F)ccc2cc(O)cc(-c3ncc4c(N5CC6CCC(C5)N6)nc(OCC56CCCN5CC(F)C6)nc4c3F)c12 (stereo unspecified) + CC(Nc1ccc2c(c1)OCCn1cc(N3C(=O)OCC3C(F)F)nc1-2)C(N)=O
inactive: viability, T/C [1] 96.3% | viability, T/C [2] 85.3% | viability, T/C [3] 85.6% | viability, T/C [4] 78.3% | viability, T/C [5] 90.9% | viability, T/C [6] 84.1% | viability, T/C [7] 107% | viability, T/C [8] 82.3% | viability, T/C [9] 102% | viability, T/C [10] 100% | viability, T/C [11] 95.2% | viability, T/C [12] 92.9% | viability, T/C [13] 83.3% | viability, T/C [14] 77.8% | viability, T/C [15] 97.8% | viability, T/C [16] 79% | viability, T/C [17] 94.6% | viability, T/C [18] 89.1% | viability, T/C [19] 99.8% | viability, T/C [20] 83% | viability, T/C [21] 79% | viability, T/C [22] 88.6% | viability, T/C [23] 91.1% | viability, T/C [24] 81.4% | viability, T/C [25] 62.7% | viability, T/C [26] 70.7% | viability, T/C [27] 76.8% | viability, T/C [28] 59.9% | viability, T/C [29] 70.8% | viability, T/C [30] 61.3% | viability, T/C [31] 48.8% | viability, T/C [32] 55.3% | viability, T/C [33] 61.2% | viability, T/C [34] 43.7% | viability, T/C [35] 46.1% | viability, T/C [36] 62.5%
> 10 µM: IC50 (second compound 0.00316 µM) | IC50 (second compound 0.01 µM) | IC50 (second compound 0.0316 µM) | IC50 (second compound 0.1 µM) | IC50 (second compound 0.316 µM) | IC50 (second compound 1 µM)

C=CC(=O)N1CCN(c2nc(=O)n(-c3c(C)ccnc3C(C)C)c3nc(-c4c(O)cccc4F)c(F)cc23)C(C)C1 (stereo unspecified) + CC(Nc1ccc2c(c1)OCCn1cc(N3C(=O)OCC3C(F)F)nc1-2)C(N)=O
inactive: viability, T/C [1] 87.5% | viability, T/C [2] 103% | viability, T/C [3] 78.8% | viability, T/C [4] 86.3% | viability, T/C [5] 97.3% | viability, T/C [6] 113% | viability, T/C [7] 104% | viability, T/C [8] 67.8% | viability, T/C [9] 106% | viability, T/C [10] 84.8% | viability, T/C [11] 99.9% | viability, T/C [12] 92.1% | viability, T/C [13] 99% | viability, T/C [14] 84.8% | viability, T/C [15] 95.9% | viability, T/C [16] 98% | viability, T/C [17] 88.2% | viability, T/C [18] 88.3% | viability, T/C [19] 81.2% | viability, T/C [20] 83.6% | viability, T/C [21] 83.8% | viability, T/C [22] 98.5% | viability, T/C [23] 82.9% | viability, T/C [24] 96.8% | viability, T/C [25] 71.2% | viability, T/C [26] 73.3% | viability, T/C [27] 77% | viability, T/C [28] 74.5% | viability, T/C [29] 75.9% | viability, T/C [30] 79.2% | viability, T/C [31] 48.5% | viability, T/C [32] 47.2% | viability, T/C [33] 59% | viability, T/C [34] 54.2% | viability, T/C [35] 63.4% | viability, T/C [36] 67.2%
> 10 µM: IC50 (second compound 0.00316 µM) | IC50 (second compound 0.01 µM) | IC50 (second compound 0.0316 µM) | IC50 (second compound 0.1 µM) | IC50 (second compound 0.316 µM)
< 0.0316 µM: IC50 (second compound 1 µM)

CC(Cn1ccc(-c2ccc(C#N)c(Cl)c2)n1)NC(=O)c1cc(C(C)O)[nH]n1 (stereo unspecified) + CC(Nc1ccc2c(c1)OCCn1cc(N3C(=O)OCC3C(F)F)nc1-2)C(N)=O
0.25 µM: IC50 (second compound 1 µM)
> 10 µM: IC50 (second compound 0.00316 µM) | IC50 (second compound 0.01 µM) | IC50 (second compound 0.0316 µM) | IC50 (second compound 0.1 µM) | IC50 (second compound 0.316 µM)
inactive: viability, T/C [1] 92.5% | viability, T/C [2] 91.2% | viability, T/C [3] 83.2% | viability, T/C [4] 79.1% | viability, T/C [5] 88.5% | viability, T/C [6] 59.3% | viability, T/C [7] 114% | viability, T/C [8] 85.7% | viability, T/C [9] 92.1% | viability, T/C [10] 73.5% | viability, T/C [11] 92.2% | viability, T/C [12] 63.2% | viability, T/C [13] 125% | viability, T/C [14] 98% | viability, T/C [15] 76.2% | viability, T/C [16] 83.2% | viability, T/C [17] 90.6% | viability, T/C [18] 62.7% | viability, T/C [19] 83.1% | viability, T/C [20] 76.5% | viability, T/C [21] 76.2% | viability, T/C [22] 72.1% | viability, T/C [23] 87.7% | viability, T/C [24] 67.2% | viability, T/C [25] 65.8% | viability, T/C [26] 65.7% | viability, T/C [27] 55.2% | viability, T/C [28] 57.3% | viability, T/C [29] 60.2% | viability, T/C [30] 53.5% | viability, T/C [31] 87.2% | viability, T/C [32] 56.4% | viability, T/C [33] 46.8% | viability, T/C [34] 46.1% | viability, T/C [35] 54.7% | viability, T/C [36] 41.4%
